Reference: patent US20230021483A1, “[…] […] METHOD AND CLASSIFICATION OF PHARMACEUTICAL COMPONENTS BY USING TRANSCRIPTOMES” (National Institutes of Biomedical Innovation, Health and …, priority 2016, published 2023)

Tested on: adjuvant-associated biological themes in LV, SP, LN
Procedure, shortened: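 Per-mouse whole-organ transcriptomes; genes with eij/ei(c)>2.0 tested for theme enrichment via TargetMine (GO, KEGG, Reactome, others), Fisher's exact test, Holm-Bonferroni correction. Themes shared by all three mice kept at p<0.05, using the smallest p. Score per adjuvant-associated term = Σ−log(p) of matching themes.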

For `CC(O)COC[C@H]1O[C@@H]2O[C@H]3[C@H](O)[C@@H](O)[C@@H](O[C@H]4[C@H](O)[C@@H](O)[C@@H](O[C@H]5[C@H](O)[C@@H](O)[C@@H](O[C@H]6[C@H](O)[C@@H](O)[C@@H](O[C@H]7[C@H](O)[C@@H](O)[C@@H](O[C@H]8[C@H](O)[C@@H](O)[C@@H](O[C@H]1[C@H](O)[C@H]2O)O[C@@H]8COCC(C)O)O[C@@H]7COCC(C)O)O[C@@H]6COCC(C)O)O[C@@H]5COCC(C)O)O[C@@H]4COCC(C)O)O[C@@H]3COCC(C)O` (stereo partly drawn) [bCD, Hydroxypropyl-beta-cyclodextrin], the “GO annotation: Cytokine-cytokine receptor interaction (Term: cytokine)” value (LV, ID) was 4.24, the “GO annotation: Cytokine-cytokine receptor interaction|Endocytosis (Term: cytokine)” value (LV, ID) was 7.76 and the “GO annotation: I-kappaB kinase/NF-kappaB signaling (Term: NF-kappa B signaling pathway)” value (LV, ID) was 4.21. The “GO annotation: NF-kappa B signaling pathway (Term: NF-kappa B signaling pathway)” value (LV, ID) was 6.86, the “GO annotation: TNF signaling pathway (Term: TNF signaling pathway)” value (LV, ID) was 10.6 and the “GO annotation: activation of immune response (Term: immune response)” value (LV, ID) was 0. The “GO annotation: activation of innate immune response (Term: innate immune response)” value (LV, ID) was 0, the “GO annotation: acute inflammatory response (Term: inflammatory response)” value (LV, ID) was 0 and the “GO annotation: adaptive immune response (Term: adaptive immune response)” value (LV, ID) was 0. For the same compound, the “GO annotation: apoptotic process (Term: apoptosis)” value (LV, ID) was 0, the “GO annotation: apoptotic signaling pathway (Term: apoptosis)” value (LV, ID) was 0 and the “GO annotation: cell chemotaxis (Term: chemotaxis)” value (LV, ID) was 5.73. For the same compound, the “GO annotation: cell death (Term: cell death)” value (LV, ID) was 5.8, the “GO annotation: cell migration (Term: migration)” value (LV, ID) was 0 and the “GO annotation: cellular response to cytokine stimulus (Term: cytokine)” value (LV, ID) was 0. For the same compound, the “GO annotation: cellular response to interferon-alpha (Term: IFN alpha)” value (LV, ID) was 0, the “GO annotation: cellular response to stress (Term: stress)” value (LV, ID) was 0 and the “GO annotation: chemokine production (Term: chemokine)” value (LV, ID) was 0. For the same compound, the “GO annotation: chemokine-mediated signaling pathway (Term: chemokine)” value (LV, ID) was 0, the “GO annotation: chemotaxis (Term: chemotaxis)” value (LV, ID) was 0 and the “GO annotation: cytokine biosynthetic process (Term: cytokine)” value (LV, ID) was 0. For the same compound, the “GO annotation: cytokine metabolic process (Term: cytokine)” value (LV, ID) was 0, the “GO annotation: cytokine production (Term: cytokine)” value (LV, ID) was 3.82 and the “GO annotation: cytokine secretion (Term: cytokine)” value (LV, ID) was 0. For the same compound, the “GO annotation: cytokine-mediated signaling pathway (Term: cytokine)” value (LV, ID) was 0, the “GO annotation: death (Term: cell death)” value (LV, ID) was 0 and the “GO annotation: defense response (Term: defense response)” value (LV, ID) was 8.51. For the same compound, the “GO annotation: defense response to Gram-positive bacterium (Term: defense response)” value (LV, ID) was 0, the “GO annotation: defense response to bacterium (Term: defense response)” value (LV, ID) was 0 and the “GO annotation: defense response to other organism (Term: defense response)” value (LV, ID) was 0. For the same compound, the “GO annotation: defense response to protozoan (Term: defense response)” value (LV, ID) was 0, the “GO annotation: defense response to virus (Term: defense response)” value (LV, ID) was 0 and the “GO annotation: granulocyte chemotaxis (Term: chemotaxis)” value (LV, ID) was 0. The “GO annotation: granulocyte migration (Term: migration)” value (LV, ID) was 0, the “GO annotation: immune response (Term: immune response)” value (LV, ID) was 0 and the “GO annotation: immune response-activating signal transduction (Term: immune response)” value (LV, ID) was 0. The “GO annotation: immune response-regulating signaling pathway (Term: immune response)” value (LV, ID) was 0, the “GO annotation: inflammatory response (Term: inflammatory response)” value (LV, ID) was 10.9 and the “GO annotation: innate immune response (Term: innate immune response)” value (LV, ID) was 0. The “GO annotation: innate immune response-activating signal transduction (Term: innate immune response)” value (LV, ID) was 0, the “GO annotation: interferon-alpha production (Term: IFN alpha)” value (LV, ID) was 0 and the “GO annotation: intrinsic apoptotic signaling pathway (Term: apoptosis)” value (LV, ID) was 0. For the same compound, the “GO annotation: leukocyte chemotaxis (Term: chemotaxis)” value (LV, ID) was 0, the “GO annotation: leukocyte migration (Term: migration)” value (LV, ID) was 0 and the “GO annotation: leukocyte migration involved in inflammatory response (Term: inflammatory response)” value (LV, ID) was 0. The “GO annotation: lymphocyte chemotaxis (Term: chemotaxis)” value (LV, ID) was 0, the “GO annotation: lymphocyte migration (Term: migration)” value (LV, ID) was 0 and the “GO annotation: myeloid leukocyte migration (Term: migration)” value (LV, ID) was 0. For the same compound, the “GO annotation: negative regulation of apoptotic process (Term: apoptosis)” value (LV, ID) was 0, the “GO annotation: negative regulation of cell death (Term: cell death)” value (LV, ID) was 0 and the “GO annotation: negative regulation of cytokine production (Term: cytokine)” value (LV, ID) was 0. The “GO annotation: negative regulation of defense response (Term: defense response)” value (LV, ID) was 0, the “GO annotation: negative regulation of immune response (Term: immune response)” value (LV, ID) was 0 and the “GO annotation: negative regulation of innate immune response (Term: innate immune response)” value (LV, ID) was 0. The “GO annotation: negative regulation of programmed cell death (Term: cell death)” value (LV, ID) was 0, the “GO annotation: neutrophil chemotaxis (Term: chemotaxis)” value (LV, ID) was 0 and the “GO annotation: neutrophil migration (Term: migration)” value (LV, ID) was 0. For the same compound, the “GO annotation: positive regulation of I-kappaB kinase/NF-kappaB signaling (Term: NF-kappa B signaling pathway)” value (LV, ID) was 0, the “GO annotation: positive regulation of adaptive immune response (Term: adaptive immune response)” value (LV, ID) was 0 and the “GO annotation: positive regulation of apoptotic process (Term: apoptosis)” value (LV, ID) was 0. The “GO annotation: positive regulation of cell death (Term: cell death)” value (LV, ID) was 0, the “GO annotation: positive regulation of cell migration (Term: migration)” value (LV, ID) was 0 and the “GO annotation: positive regulation of chemokine production (Term: chemokine)” value (LV, ID) was 0. The “GO annotation: positive regulation of chemotaxis (Term: chemotaxis)” value (LV, ID) was 0, the “GO annotation: positive regulation of cytokine biosynthetic process (Term: cytokine)” value (LV, ID) was 0 and the “GO annotation: positive regulation of cytokine production (Term: cytokine)” value (LV, ID) was 0. For the same compound, the “GO annotation: positive regulation of defense response (Term: defense response)” value (LV, ID) was 0, the “GO annotation: positive regulation of immune response (Term: immune response)” value (LV, ID) was 0 and the “GO annotation: positive regulation of inflammatory response (Term: inflammatory response)” value (LV, ID) was 0. For the same compound, the “GO annotation: positive regulation of innate immune response (Term: innate immune response)” value (LV, ID) was 0, the “GO annotation: positive regulation of interferon-alpha production (Term: IFN alpha)” value (LV, ID) was 0 and the “GO annotation: positive regulation of leukocyte chemotaxis (Term: chemotaxis)” value (LV, ID) was 0. For the same compound, the “GO annotation: positive regulation of leukocyte migration (Term: migration)” value (LV, ID) was 0, the “GO annotation: positive regulation of programmed cell death (Term: cell death)” value (LV, ID) was 0 and the “GO annotation: positive regulation of response to wounding (Term: wounding)” value (LV, ID) was 0. The “GO annotation: positive regulation of tumor necrosis factor superfamily cytokine (Term: cytokine)” value (LV, ID) was 0, the “GO annotation: production of molecular mediator of immune response (Term: immune response)” value (LV, ID) was 0 and the “GO annotation: programmed cell death (Term: cell death)” value (LV, ID) was 0. For the same compound, the “GO annotation: regulation of I-kappaB kinase/NF-kappaB signaling (Term: NF-kappa B signaling pathway)” value (LV, ID) was 0, the “GO annotation: regulation of adaptive immune response (Term: adaptive immune response)” value (LV, ID) was 0 and the “GO annotation: regulation of apoptotic process (Term: apoptosis)” value (LV, ID) was 0. The “GO annotation: regulation of apoptotic signaling pathway (Term: apoptosis)” value (LV, ID) was 0, the “GO annotation: regulation of cell death (Term: cell death)” value (LV, ID) was 0 and the “GO annotation: regulation of cell migration (Term: migration)” value (LV, ID) was 0. The “GO annotation: regulation of chemokine production (Term: chemokine)” value (LV, ID) was 0, the “GO annotation: regulation of chemotaxis (Term: chemotaxis)” value (LV, ID) was 0 and the “GO annotation: regulation of cytokine biosynthetic process (Term: cytokine)” value (LV, ID) was 0. For the same compound, the “GO annotation: regulation of cytokine production (Term: cytokine)” value (LV, ID) was 4.06, the “GO annotation: regulation of defense response (Term: defense response)” value (LV, ID) was 6.85 and the “GO annotation: regulation of defense response to virus (Term: defense response)” value (LV, ID) was 0. For the same compound, the “GO annotation: regulation of defense response to virus by host (Term: defense response)” value (LV, ID) was 0, the “GO annotation: regulation of immune response (Term: immune response)” value (LV, ID) was 0 and the “GO annotation: regulation of inflammatory response (Term: inflammatory response)” value (LV, ID) was 7.33. The “GO annotation: regulation of innate immune response (Term: innate immune response)” value (LV, ID) was 0, the “GO annotation: regulation of interferon-alpha production (Term: IFN alpha)” value (LV, ID) was 0 and the “GO annotation: regulation of intrinsic apoptotic signaling pathway (Term: apoptosis)” value (LV, ID) was 0. The “GO annotation: regulation of leukocyte chemotaxis (Term: chemotaxis)” value (LV, ID) was 0, the “GO annotation: regulation of leukocyte migration (Term: migration)” value (LV, ID) was 0 and the “GO annotation: regulation of programmed cell death (Term: cell death)” value (LV, ID) was 0. The “GO annotation: regulation of response to stress (Term: stress)” value (LV, ID) was 0, the “GO annotation: regulation of response to wounding (Term: wounding)” value (LV, ID) was 6.31 and the “GO annotation: regulation of tumor necrosis factor superfamily cytokine production (Term: cytokine)” value (LV, ID) was 0. The “GO annotation: response to cytokine (Term: cytokine)” value (LV, ID) was 7.77, the “GO annotation: response to interferon-alpha (Term: IFN alpha)” value (LV, ID) was 0 and the “GO annotation: response to stress (Term: stress)” value (LV, ID) was 10.4. The “GO annotation: response to wounding (Term: wounding)” value (LV, ID) was 5.85, the “GO annotation: taxis (Term: chemotaxis)” value (LV, ID) was 0 and the “GO annotation: tumor necrosis factor superfamily cytokine production (Term: cytokine)” value (LV, ID) was 0. The “IFN beta: cellular response to interferon-beta” value (LV, ID) was 0, the “IFN beta: interferon-beta production” value (LV, ID) was 0 and the “IFN beta: positive regulation of interferon-beta production” value (LV, ID) was 0. The “IFN beta: regulation of interferon-beta production” value (LV, ID) was 0, the “IFN beta: response to interferon-beta” value (LV, ID) was 0 and the “IFN gamma: cellular response to interferon-gamma” value (LV, ID) was 0. The “IFN gamma: interferon-gamma production” value (LV, ID) was 0, the “IFN gamma: regulation of interferon-gamma production” value (LV, ID) was 0 and the “IFN gamma: response to interferon-gamma” value (LV, ID) was 0. For the same compound, the “interleukin-6: interleukin-6 production” value (LV, ID) was 0, the “interleukin-6: positive regulation of interleukin-6 production” value (LV, ID) was 0 and the “interleukin-6: regulation of interleukin-6 production” value (LV, ID) was 0. For the same compound, the “interleukin-12: interleukin-12 production” value (LV, ID) was 0, the “interleukin-12: positive regulation of interleukin-12 production” value (LV, ID) was 0 and the “interleukin-12: regulation of interleukin-12 production” value (LV, ID) was 0. For the same compound, the “GO annotation: adaptive immune response based on somatic recombination of immune receptors built from immunoglobulin superfamily domains (Term: adaptive immune response)” value (mouse, in vivo) was 0 and the “GO annotation: regulation of adaptive immune response based on somatic recombination of immune receptors built from immunoglobulin superfamily domains (Term: adaptive immune response)” value (mouse, in vivo) was 0.
